# Measurements taken from patent US20070270488A1, “Treatment and Assays” (The Queen's University of Belfast, priority 2004, published 2007).
# Like-named read-outs stand apart in the source and are kept apart here.
# Legend:
# Assay type in all cases: cell-based, human
# [1] = tested on: p53^+/+ oxaliplatin-resistant HCT116 cells; experiment: MTT cytotoxicity assay, p53^+/+ oxaliplatin-resistant HCT116 cells; conditions: for IC50: p53^+/+ oxaliplatin-resistant, MTT, 72 h; for increase in IC50 (72 hr) compared to parental cells: p53^+/+ oxaliplatin-resistant vs p53^+/+ parental
# Protocol: (§1) Tissue culture. HCT116 p53^+/+ and p53^−/− isogenic human colon cancer cells were kindly provided by Professor Bert Vogelstein (John Hopkins University, Baltimore, Md.). Drug-resistant HCT116 sub-lines were developed in the inventors' laboratory by repeated exposure to stepwise increasing concentrations of 5-FU, CPT-11 or oxaliplatin over a period of approximately ten months. Parental and drug-resistant HCT116 cell lines were grown in McCoy's 5A medium supplemented with 10% dialysed foetal calf serum (FCS), 50 μg/ml penicillin-streptomycin, 2 mM L-glutamine and 1 mM sodium pyruvate (all from GIBCO Invitrogen Corporation, Paisley, Scotland) and maintained at 37° C. in a humidified atmosphere containing 5% CO2. 5-FU-resistant p53^+/+ and p53^−/− HCT116 cells were maintained in the presence of 2 μM and 4 μM 5-FU respectively. CPT-11-resistant p53^+/+ and p53^−/− HCT116 cells were maintained in the presence of 1 μM and 3 μM CPT-11 respectively. […] Prior to each experiment, resistant sub-lines were cultured in the absence of drug for 48 hours.
# (§2) Cytotoxicity studies. Cells were seeded at 2000 cells per well in 96-well microtiter plates. After 48 hours, cells were treated with a range of concentrations of 5-FU, CPT-11 or oxaliplatin.
# (§3) After 72 hours, 25 μl of MTT dye (5 mg/ml) was added to each well and the plates were incubated at 37° C. for 3 hours. Dark-blue formazan crystals formed by live cells were dissolved in 200 μl of DMSO and absorbance in individual wells was determined at 570 nm using an Emax precision microplate reader (Molecular Devices, Sunnyvale, Calif.).
# [2] = tested on: p53^+/+ 5-FU-resistant HCT116 cells; experiment: MTT cytotoxicity assay, p53^+/+ 5-FU-resistant HCT116 cells; conditions: for IC50: p53^+/+ 5-FU-resistant, MTT, 72 h
# [3] = tested on: p53^−/− oxaliplatin-resistant HCT116 cells; experiment: MTT cytotoxicity assay, p53^−/− oxaliplatin-resistant HCT116 cells; conditions: for IC50: p53^−/− oxaliplatin-resistant, MTT, 72 h; for increase in IC50 (72 hr) compared to parental cells: p53^−/− oxaliplatin-resistant vs p53^−/− parental
# Protocol: as §1, §2, §3
# [4] = tested on: HCT116 p53^+/+ parental cells; experiment: MTT cytotoxicity assay, HCT116 p53^+/+ parental cells; conditions: 72 h
# Protocol: as §1, §2, §3
# [5] = tested on: p53^−/− HCT116 cells; experiment: PARP cleavage immunoblotting, p53^−/− HCT116 cells; conditions: 48 hours, Western blot
# [6] = tested on: HCT116 p53^−/− parental cells; experiment: MTT cytotoxicity assay, HCT116 p53^−/− parental cells; conditions: for IC50: MTT, 72 h
# Protocol: as §1, §2, §3
# [7] = tested on: p53^+/+ HCT116 parental cells; experiment: Flow cytometry cell cycle/apoptosis, p53^+/+ HCT116 parental cells; conditions: 72 hours
# [8] = tested on: p53^+/+ CPT-11-resistant HCT116 cells; experiment: MTT cytotoxicity assay, p53^+/+ CPT-11-resistant HCT116 cells; conditions: for IC50: p53^+/+ CPT-11-resistant, MTT, 72 h; for increase in IC50 (72 hr) compared to parental cells: p53^+/+ CPT-11-resistant vs p53^+/+ parental
# [9] = tested on: p53^−/− 5-FU-resistant HCT116 cells; experiment: MTT cytotoxicity assay, p53^−/− 5-FU-resistant HCT116 cells; conditions: p53^−/− 5-FU-resistant, MTT, 72 h
# [10] = tested on: p53^−/− CPT-11-resistant HCT116 cells; experiment: MTT cytotoxicity assay, p53^−/− CPT-11-resistant HCT116 cells; conditions: for IC50: p53^−/− CPT-11-resistant, MTT, 72 h; for increase in IC50 (72 hr) compared to parental cells: p53^−/− CPT-11-resistant vs p53^−/− parental
# [11] = tested on: p53^+/+ HCT116 cells; experiment: PARP cleavage immunoblotting, p53^+/+ HCT116 cells; conditions: 48 hours, Western blot
# [12] = tested on: p53^+/+ CPT-11-resistant HCT116 cells; experiment: Flow cytometry cell cycle/apoptosis, p53^+/+ CPT-11-resistant cells; conditions: 72 hours
# Protocol: as §1
# (§4) Flow cytometry. Cells were seeded at 5×10^4 cells per well in 6-well plates. After 48 hours, cells were treated with a range of concentrations of 5-FU, CPT-11 or oxaliplatin. Seventy-two hours post-treatment, cells were harvested in 5 ml of 1× PBS/0.5 mM EDTA and pelleted by centrifugation at 1000 rpm/4° C. for 5 minutes. Cell pellets were washed once with 1× PBS/1% FCS, fixed in 70% ethanol and stained with propidium iodide. Analyses were performed on a Beckman Coulter Epics XL flow cytometer (Miami, Fla.).
# [13] = tested on: p53^−/− CPT-11-resistant HCT116 cells; experiment: Flow cytometry cell cycle/apoptosis, p53^−/− CPT-11-resistant cells
# [14] = tested on: p53^+/+ 5-FU-resistant HCT116 cells; experiment: Flow cytometry cell cycle/apoptosis, p53^+/+ 5-FU-resistant cells; conditions: p53^+/+ 5-FU-resistant cell line, data not shown
# [15] = tested on: p53^−/− HCT116 parental cells; experiment: Flow cytometry cell cycle/apoptosis, p53^−/− HCT116 parental cells; conditions: 72 hours; for drug-induced apoptosis in p53^−/− compared to p53^+/+ parental cells: range of concentrations
# [16] = tested on: p53^−/− oxaliplatin-resistant HCT116 cells; experiment: Flow cytometry cell cycle/apoptosis, p53^−/− oxaliplatin-resistant cells; conditions: same concentrations as parental (1 μM, 5 μM)
# Protocol: as §1
# Flow cytometry. Cells were seeded at 5×10^4 cells per well in 6-well plates. After 48 hours, cells were treated with a range of concentrations of 5-FU, CPT-11 or oxaliplatin. Seventy-two hours post-treatment, cells were harvested in 5 ml of 1× PBS/0.5 mM EDTA and pelleted by centrifugation at 1000 rpm/4° C. for 5 minutes. […]
# [17] = tested on: p53^+/+ oxaliplatin-resistant HCT116 cells; experiment: Flow cytometry cell cycle/apoptosis, p53^+/+ oxaliplatin-resistant cells; conditions: 72 hours
# Protocol: as §1, §4
# [18] = Homo sapiens, HCT-116, read-out: IC50(72 h)
# [19] = parental HCT116 p53^−/− vs p53^+/+
# [20] = HCT116 p53^+/+ parental, read-out: IC50(72 h)
# [21] = HCT116 p53^−/− parental, read-out: IC50(72 h)
structure (smiles),measurement,setting,value
"CCc1c2c(nc3ccc(OC(=O)N4CCC(N5CCCCC5)CC4)cc13)-c1cc3c(c(=O)n1C2)COC(=O)[C@]3(O)CC [CPT-11, irinotecan]",IC50,[1]; [18],2.9 µM
same,IC50,[2]; [18],7.2 µM
same,increase in IC50 (72 hr) compared to parental cells,[2]; p53^+/+ 5-FU-resistant vs p53^+/+ parental,~2 fold
same,IC50,[3]; [18],3.5 µM
same,IC50,"[4]; Homo sapiens, HCT-116, HCT116 p53^+/+ parental, read-out: IC50(72 h)",3.2 µM
same,PARP cleavage,[5]; 5 μM,evident
same,IC50,"[6]; Homo sapiens, HCT-116, HCT116 p53^−/− parental, read-out: IC50(72 h)",3.1 µM
same,IC50 (72 h) in parental p53^+/+ and p53^−/− cells compared,[6]; [19],almost identical
same,cell cycle distribution,[7]; 0.5 μM,accumulation of cells in S-phase
same,cell cycle distribution,[7]; 1 μM,majority of cells were now arrested in G2/M
same,cells in the sub-G0/G1 apoptotic phase,[7]; 5 μM,~40%
same,IC50,[8]; [18],30.3 µM
same,increase in IC50 (72 hr) compared to parental cells,[8],10.0 fold
same,IC50,[9]; [18],2.8 µM
same,IC50,[10]; [18],200 µM
same,increase in IC50 (72 hr) compared to parental cells,[10],65.0 fold
same,PARP cleavage,[11]; 5 μM,evident
same,cell cycle distribution,[12]; 0.5 μM and 1 μM,almost completely insensitive
same,cell cycle distribution,[12]; 5 μM,significant G2/M arrest and accumulation of polyploid cells
same,degree of apoptosis,[12]; 5 μM,~14%
same,cell cycle distribution,[13]; 0.5 μM and 1 μM,no G2/M arrest was observed
same,apoptosis,"[13]; 5 μM, 72 hours",no apoptosis was observed
same,cross-resistance examined using flow cytometry,[14],not apparent
same,cell cycle distribution,[15]; 0.5 μM and 1 μM,dramatic G2/M cell cycle arrest
same,apoptotic cells,"[15]; 5 μM, ~2% in control samples",~35%
same,drug-induced apoptosis in p53^−/− compared to p53^+/+ parental cells,[15],almost identical levels of apoptosis
CCc1c2c(nc3ccc(O)cc13)-c1cc3c(c(=O)n1C2)COC(=O)[C@]3(O)CC [SN-38],IC50,[1]; read-out: SN-38 IC50(72 h),0.0037 µM
same,IC50,[2]; read-out: SN-38 IC50(72 h),0.0065 µM
same,IC50,[3]; read-out: SN-38 IC50(72 h),0.0033 µM
same,IC50,"[4]; p53^+/+ Parental, read-out: SN-38 IC50(72 h)",0.0056 µM
same,IC50,"[6]; p53^−/− Parental, read-out: SN-38 IC50(72 h)",0.0042 µM
same,IC50 (72 h) in parental p53^+/+ and p53^−/− cells compared,[6]; [19],similar
same,increase in IC50 (72 hr) compared to parental cells,[8],~10 fold
same,IC50,[8]; read-out: SN-38 IC50(72 h),0.04 µM
same,IC50,[9]; read-out: SN-38 IC50(72 h),0.0036 µM
same,increase in IC50 (72 hr) compared to parental cells,[10],~100 fold
same,IC50,[10]; read-out: SN-38 IC50(72 h),0.54 µM
N.N.O=C([O-])C1(C(=O)[O-])CCC1.[Pt+2] [carboplatin],increase in IC50 (72 hr) compared to parental cells,[1],~2 fold
same,IC50,[1]; read-out: IC50(72 h),176 µM
same,increase in IC50 (72 hr) compared to parental cells,[3],~2 fold
same,IC50,[3]; read-out: IC50(72 h),141 µM
same,IC50,[4]; [20],76 µM
same,IC50,[6]; [21],78.7 µM
N.N.[Cl][Pt][Cl] [cisplatin],IC50,[1]; read-out: IC50(72 h),7.3 µM
same,IC50,[3]; read-out: IC50(72 h),6.7 µM
same,IC50,[4]; [20],5.4 µM
same,IC50,[6]; [21],5.7 µM
O=C1[O][Pt]2([NH][C@@H]3CCCC[C@H]3[NH]2)[O]C1=O [oxaliplatin],increase in IC50 (72 hr) compared to parental cells,[1],31.0 fold
same,IC50,[1]; read-out: IC50(72 h),9.4 µM
same,IC50,[2]; read-out: IC50(72 h),0.3 µM
same,increase in IC50 (72 hr) compared to parental cells,[3],10.5 fold
same,IC50,[3]; read-out: IC50(72 h),17.9 µM
same,IC50,[4]; [20],0.3 µM
same,PARP cleavage,[5]; 1 μM,not
same,IC50,[6]; [21],1.7 µM
same,increase in IC50 (72 h) dose in p53^−/− compared to p53^+/+ cells,[6]; [19],5.7 fold
same,cell cycle distribution,[16],no change in cell cycle distribution
same,cell cycle distribution,[7]; 0.5 μM,majority of cells had arrested in G2/M-phase
same,proportion of apoptotic cells,"[7]; 1 μM and 5 μM, ~2% in control samples",40-50%
same,IC50,[8]; read-out: IC50(72 h),0.3 µM
same,IC50,[9]; read-out: IC50(72 h),1.9 µM
same,cell cycle distribution,[17]; 0.5 μM and 1 μM,unaffected
same,cell cycle distribution,[17]; 5 μM,majority of cells were arrested in S-phase
same,induction of apoptosis compared to parental cells,[17],dramatically attenuated
same,IC50,[10]; read-out: IC50(72 h),1.7 µM
same,PARP cleavage,[11]; 1 μM,observed
same,cell cycle distribution,[15]; 1 μM,S-phase block and a moderate increase in the polyploid fraction
same,cell cycle distribution,[15]; 5 μM,majority of cells were arrested in G2/M phase
same,drug-induced apoptosis in p53^−/− compared to p53^+/+ parental cells,[15],significantly attenuated
